Experimental data: paper PMC4097383 (Drug and alcohol dependence, 2013)

T1: human cardiac calsequestrin (CASQ2) (Homo sapiens, UniProt O14958)
T1 sequence (O14958 20-399): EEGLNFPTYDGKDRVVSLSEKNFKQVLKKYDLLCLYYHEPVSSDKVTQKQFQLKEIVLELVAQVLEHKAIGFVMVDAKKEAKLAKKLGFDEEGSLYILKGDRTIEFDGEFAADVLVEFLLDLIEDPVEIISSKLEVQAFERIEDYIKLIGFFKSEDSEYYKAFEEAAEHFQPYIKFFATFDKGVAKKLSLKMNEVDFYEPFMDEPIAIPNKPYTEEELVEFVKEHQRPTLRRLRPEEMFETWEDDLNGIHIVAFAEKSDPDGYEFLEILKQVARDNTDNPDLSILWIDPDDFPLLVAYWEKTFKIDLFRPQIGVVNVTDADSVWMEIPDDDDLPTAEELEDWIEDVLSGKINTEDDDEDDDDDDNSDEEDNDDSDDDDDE


What was measured:
[1] = biological target: T1, human cardiac calsequestrin (CASQ2); assay: equilibrium dialysis and atomic absorption spectroscopy; format: biochemical; conditions: 350 μM cocaine, 1 mg/mL CASQ2, 1 h preincubation
[2] = biological target: T1, human cardiac calsequestrin (CASQ2); assay: isothermal titration calorimetry; format: binding
SEC-MALS = biological target: the molecule itself; assay: SEC-MALS

Row | Molecule | % reduction in Ca2+ binding capacity at 350 μM [1] | Kd [2] [µM] | stoichiometry N (SEC-MALS)
1 | COC(=O)[C@H]1[C@@H](OC(=O)c2ccccc2)C[C@@H]2CC[C@H]1N2C [cocaine] | ~ 50% | 63.5 ± 2.7 | 
2 | human cardiac calsequestrin (CASQ2) (natural protein) GLNFPTYDGKDRVVSLSEKNFKQVLKKYDLLCLYYHEPVSSDKVTQKQFQLKEIVLELVAQVLEHKAIGFVMVDAKKEAKLAKKLGFDEEGSLYILKGDRTIEFDGEFAADVLVEFLLDLIEDPVEIISSKLEVQAFERIEDYIKLIGFFKSEDSEYYKAFEEAAEHFQPYIKFFATFDKGVAKKLSLKMNEVDFYEPFMDEPIAIPNKPYTEEELVEFVKEHQRPTLRRLRPEEMFETWEDDLNGIHIVAFAEKSDPDGYEFLEILKQVARDNTDNPDLSILWIDPDDFPLLVAYWEKTFKIDLFRPQIGVVNVTDADSVWMEIPDDDDLPTAEELEDWIEDVLSGKINTEDDDEDDDDDDNSDEEDNDDSDDDDDE |  |  | 2
